Reference: article PMC7767381, “Exploring the Anti-Cancer Mechanism of Novel 3,4′-Substituted Diaryl Guanidinium Derivatives” (Pharmaceuticals, 2020)

What was measured:
MCF-7 cells = experiment: alamarBlue cell viability assay, MCF-7; assay type: cell-based; details: Homo sapiens, MCF7, 72 h, read-out: MCF-7 IC50 ± SEM
From the text: (§1) Cell viability and proliferation assays were used to evaluate the in vitro cytotoxicity of all synthesised compounds in a variety of different cancer cell lines using the alamarBlue® viability assay and the results are presented in Table 1 and Table 2. The sensitivity of cancer cells to drugs can often be compromised by PIK3CA, Ras and BRAF mutations. To determine whether such mutations are critical to the efficacy of our new compounds we tested them in a range of cancerous cell lines expressing different mutations. Firstly, we used the HL-60 (human promyelocytic leukaemia, NRas mutated) cell line for general cytotoxicity screening of all compounds. […] Lastly, toxicity against MCF-10A, which is a non-tumorigenic epithelial cell line, was also assessed for one of the most promising compounds (4). The graphs representing the viability results with the HL-60, MCF-7, HeLa, HCT-116, and HKH-2 cancer cell lines for compound 1 and derivatives 2, 3, and 4 are shown in Figures S7–S10 (ESI).
(§2) Cells were counted and seeded in 96-well plates at a density of 2 × 10^5 cells/mL for HL-60, 2.5 × 10^4 cells/mL for MCF-7, MCF10A and HeLa, 1 × 10^5 cells/mL for HCT116 and HKH-2, all of them in their respective media. The 96-well plates were then treated with a 1:100 dilution of stock concentrations of drugs or EtOH (1% v/v)/DMSO (0.1% v/v) as vehicle control in triplicate. Three blank wells containing 200 µL RPMI with no cells were also set-up as blanks. After a 72 h incubation, 20 µL of alamarBlue was added to each well. The plates were incubated in darkness at 37 °C for 4–5 h using a Molecular Devices microplate reader, the fluorescence (F) was then read at an excitation wavelength of 544 nm and an emission wavelength of 590 nm. Cell viability was then determined by subtracting the mean blank fluorescence (Fb) from the treated sample fluorescence (Fs) and expressing this as a percentage of the fluorescence of the blanked vehicle control (Fc). […] The results were then plotted as a nonlinear regression, sigmoidal dose-response curves on Prism, from which the IC50 value for each drug was determined.
(§3) The MCF-7 (human breast tumour) cell line was obtained from Prof. Mary Meegan, School of Pharmacy, TCD. It was maintained in Roswell Park Memorial Institute (RPMI) 1640 medium with stable glutamate (GlutaMax I) supplemented with 10% (v/v) fetal bovine serum (FBS), 1% (v/v) penicillin/ streptomycin (pen-strep) and 2 mM L-glutamine.
(§4) The HeLa (human epitheloid cervix carcinoma) cell line was obtained from Prof. Thorfinnur Gunnlaugsson, School of Chemistry TCD. It was maintainedin Dulbecco's Modified Eagle's Medium (DMEM) supplemented with 10% (v/v) fetal bovine serum (FBS) and 1%(v/v) penicillin/ streptomycin (pen-strep).
(§5) The HCT116and HKH-2 (human colon cancer cells) cell lines were obtained from Prof. James Murray, School of Biochemistry and Immunology TCD. They were maintainedin Dulbecco's Modified Eagle's Medium (DMEM) supplemented with 10% (v/v) fetal bovine serum (FBS), 1% (v/v) penicillin/ streptomycin (pen-strep), 1% (v/v) sodium pyruvate (NaPyr), 1% (v/v) L-glutamine (L-Glu) and, only for HKH-2, 0.6 mg/mL geneticine (G418).
MCF-10A (human breast epithelial) cell line was obtained from Prof. Mary Meegan, School of Pharmacy, TCD. It was cultured in Dulbecco’s Modified Eagle Medium/Nutrient Mixture F-12 (DMEM/F12; Gibco) supplemented with 5% horse serum (Invitrogen), 20 ng/mL epidermal growth factor (Merck Millipore), 0.5 μg/mL hydrocortisone (Sigma), 100 ng/mL cholera toxin (Sigma), 10 μg/mL insulin (Sigma), and penicillin/streptomycin (1% v/v) (Gibco).
4.4. AlamarBlue ® Cell Viability Assay
Cells were counted and seeded in 96 well plates at a density of 2 × 10^5 cells/mL for HL-60, 2.5× 10^4 cells/mL for MCF-7, MCF10A and HeLa, 1 × 10^5 cells/mL for HCT116 and HKH-2, all of them in their respective media. The 96 well plates were then treated with a 1:100 dilution of stock concentrations of drugs or EtOH (1% v/v)/DMSO (0.1% v/v) as vehicle control in triplicate. […]

HeLa cells = experiment: alamarBlue cell viability assay, HeLa; assay type: cell-based; details: Homo sapiens, 72 h, read-out: HeLa IC50 ± SEM
From the text: as §1, §2, §3, §4, §5
MCF-10A (human breast epithelial) cell line was obtained from Prof. Mary Meegan, School of Pharmacy, TCD. […]
Cells were counted and seeded in 96 well plates at a density of 2 × 10^5 cells/mL for HL-60, 2.5× 10^4 cells/mL for MCF-7, MCF10A and HeLa, 1 × 10^5 cells/mL for HCT116 and HKH-2, all of them in their respective media. […]

SMILES	IC50 (MCF-7 cells) [µM]	IC50 (HeLa cells) [µM]
Cl.N=C(N)Nc1ccc(Oc2cccc(Nc3ccc(Cl)c(C(F)(F)F)c3)c2)cc1 [Compound 3, 1-(4-(3-((4-Chloro-3-(trifluoromethyl)phenyl)amino)phenoxy)phenyl)guanidine hydrochloride]	2.02 ± 0.27	4.33 ± 0.54
Cl.N=C(N)Nc1ccc(Oc2cccc(Nc3ccc(Cl)c(C(F)(F)F)c3)c2)cn1 [Compound 4, 1-(5-(3-((4-Chloro-3-(trifluoromethyl)phenyl)amino)phenoxy)pyridin-2-yl)guanidine hydrochloride]	3.73 ± 0.35	1.33 ± 0.08
Cl.Cl.N=C(N)Nc1ccc(Oc2cccc(NC(=N)Nc3ccc(Cl)c(C(F)(F)F)c3)c2)cn1 [Compound 2, 1-(4-Chloro-3-(trifluoromethyl)phenyl)-3-(3-((6-guanidinopyridin-3-yl)oxy)phenyl) guanidine dihydrochloride]	4.91 ± 1.04	4.87 ± 0.27
